{
  "source": "patent US20130197073A1",
  "about": "“HYPOCHOLESTEROLEMIC, ANTI-INFLAMMATORY AND ANTIEPILEPTIC NEUROPROTECTIVE COMPOUND” (NEURON BIOPHARMA, S.A., priority 2010, published 2013)",
  "key": {"[1]": {"tested_on": "human neuroblastoma SK-N-MC cells", "assay": "Protection against neuronal death induced by okadaic acid (inhibition of protein phosphatase-1), WST-1", "format": "cell-based", "conditions": "NST0060 at 10 μM; 20 nM OA, 22 hours; significant with 4 and 10 μM", "description": "(§1) The assay was performed on human neuroblastoma SK-N-MC cells in culture, maintained as described in section 2.1.\nThe inhibition caused by compound NST0060 with respect to cell death caused by treatment with okadaic acid (OA) which inhibits the activity of protein phosphatase-1 (PP1) was analyzed. OA is one of the most widely used drugs for studying the phosphorylation mechanism of the tau protein, involved in the pathogenesis and progression of AD. Inhibition of PP1 causes cytoskeleton alterations and mitochondrial damage. These cells, not exceeding 15 passages, were seeded on 96-well plates treated for adherent cells with a cell concentration of 5×10^4 cells/well; 3 wells of the plate were seeded for each assay condition.\n(§2) After 24 hours of cell incubation (at 37° C. and 5% CO2), the cell treatments were performed with 100 μl of total volume for the following conditions: • Control: culture medium (medium) • Okadaic acid (OA): medium plus 20 nM OA, causing death of 50% of the cells. • OA plus NST0060: medium plus OA (20 nM) plus NST0060 at 1, 4, 10, 40 or 100 μM.\n(§3) The cells were incubated (at 37° C. and 5% CO2) with these treatments for 22 hours, after which time WST-1 reagent (Roche) was added. The WST-1 test is based on the measurement of metabolic activity (method described in section 2.1)."}, "[2]": {"tested_on": "human neuroblastoma SK-N-MC cells", "assay": "Protection against neuronal death induced by 3-nitropropionic acid (inhibition of succinate dehydrogenase), WST-1", "format": "cell-based", "conditions": "NST0060 at 40 μM; 30 μM 3-NP, 22 hours; significant in the range of 4 to 40 μM", "description": "as §1\nThe inhibition caused by compound NST0060 with respect to cell death caused by treatment with 3-nitropropionic (3-NP) acid was analyzed. 3-NP is an irreversible inhibitor of the succinate dehydrogenase enzyme which in animal models causes oxidative stress and apoptotic cell death in the striatum and mimics neurochemical and anatomical changes associated with Huntington's disease (HD). These cells, not exceeding 15 passages, were seeded on 96-well plates treated for adherent cells with a cell concentration of 5×10^4 cells/well; 3 wells of the plate were seeded for each assay condition.\nas §2, with “3-Nitropropionic (3-NP):” for “Okadaic acid (OA):”, “30 μM 3-NP,” for “20 nM OA,”, “3-NP” for “OA”, “3-NP (30 μM)” for “OA (20 nM)”\nas §3"}, "[3]": {"tested_on": "human hepatocarcinoma line HepG2", "assay": "Intracellular total cholesterol levels in human hepatic cell line", "format": "cell-based", "conditions": "HepG2, active form, 20 hours in the absence of FBS", "description": "To that end an assay was conducted which had the purpose of determining if compound NST0060 in its active form was capable of modifying total cholesterol levels in the human hepatocarcinoma line HepG2. […] To carry out this assay, the compounds were prepared at 10 mM in ultrapure water and were activated by means of 0.1 N NaOH for 12 hours at 4° C. The compounds were stored at −20° C. until they were used.\nThe HepG2 line was obtained from the American Type Culture Collection (ATCC). The cells maintained in passage were seeded in 96-well plates (4×10^4 cells/well) in MEM supplemented with 10% FBS, 2 mM L-glutamine, 1 mM sodium pyruvate, 0.1 mM non-essential amino acids and 0.05 mg/mL gentamicin. After 24 hours of the seeding, the cells were deprived of FBS for 8 hours. The cells were then incubated with the treatments at various concentrations for 20 hours. After the incubation period, the cells were washed with PBS and lysed with a phosphate buffer with 0.5% Triton X-100. The lysis was completed by means of a double freezing-thawing.\nThe total cholesterol was quantified by means of enzymatic and fluorometric techniques. […] The fluorescence intensity was determined at 530 nm of excitation and 580 nm of emission by means of a fluorometer. The results were standardized by amount of protein, which was determined by means of the BCA technique."}, "[4]": {"tested_on": "FVB/NHan mice", "assay": "Kainate (KA) model of epilepsy in mice, convulsions, status epilepticus, latency, Racine scale", "format": "in vivo", "description": "All the animals included during the experimental process were 12-week old males from the FVB/NHan strain. The experiments were carried out strictly complying with the standard entitled Guidance on the Operation of Animals (Scientific Procedures, Act. 1986). The animals were subjected to their respective quarantine period and were treated with maximum precaution to minimize possible contaminations during inoculations and handling.\nThe animals were intraperitoneally inoculated with 25 mg/kg of kainate (KA) dissolved in PBS. Fourteen animals were pretreated at 24 and 0.5 hours before inoculation with KA by means of intraperitoneal injection with 0.25% methyl cellulose in PBS (vehicle+KA administration regimen), and 14 were pretreated at 24 and 0.5 hours before inoculation with KA by means of intraperitoneal injection with compound NST0060 at a dose of 50 mg/kg (NST0060+KA administration regimen). After inoculation, the animals were individually housed in trays to monitor them. The maximum level of epilepsy of the animals was recorded during the observation according to the Racine scale every ten minutes and for at least 120 minutes post-inoculation (m.p.i.)."}},
  "data": [
    {"smiles": "CCCC(CCC)C(=O)O[C@H]1C[C@@H](C)C=C2C=C[C@H](C)[C@H](CC[C@@H]3C[C@@H](O)CC(=O)O3)[C@H]21", "note": "[NST0060, 2-propylpentanoic acid (1S,3R,7S,8S,8aR)-1,2,3,7,8,8a-hexahydro-3,7-dimethyl-8-[2-[(2R,4R)-tetrahydro-4-hydroxy-6-oxo-2H-pyran-2-yl]ethyl]-1-naphthalenyl ester]", "values": [
      {"measurement": "protection against cell death caused by OA", "setting": "[1]", "result": 83, "unit": "%"},
      {"measurement": "protection against cell death caused by 3-NP", "setting": "[2]", "result": 32, "unit": "%"},
      {"measurement": "reduction in total cholesterol in the cells", "setting": "[3]", "result": "reductions in total cholesterol in the cells similar to those exerted by simvastatin"},
      {"measurement": "Status epilepticus, percentage of animals with tonic-clonic seizures lasting at least 30 minutes", "setting": "[4]; 50 mg/kg i.p. at 24 and 0.5 hours before KA 25 mg/kg i.p., vehicle+KA 79%", "result": 29, "unit": "%"},
      {"measurement": "Convulsions, percentage of animals with tonic-clonic seizures", "setting": "[4]; 50 mg/kg i.p. at 24 and 0.5 hours before KA 25 mg/kg i.p., vehicle+KA 93%", "result": 36, "unit": "%"},
      {"measurement": "latency (time when the first convulsions occurred)", "setting": "[4]; 50 mg/kg i.p. at 24 and 0.5 hours before KA 25 mg/kg, mean±SEM, vehicle+KA 45.7±7.5", "result": "100.1 ± 7.3", "unit": "min"},
      {"measurement": "mean level of epilepsy on the Racine scale", "setting": "[4]; 50 mg/kg i.p., two hours after KA, vehicle+KA above 4", "result": "≤ 3"}
    ]}
  ]
}
